Laboratory results as given in patent publication EP4122499A1, “FIBROBLAST ACTIVATION PROTEIN INHIBITORS AND USE THEREOF” (3B Pharmaceuticals GmbH, priority 2021, dated 2023).
One block for each compound: values may come before it.

Tests used:
HEK-FAP cells = molecular target: T1, HEK-FAP cells (Homo sapiens, UniProt Q12884); assay: LigandTracer assay with 111In-labeled compounds; type: binding; conditions: 111In-labeled compound; for kon: association rate, read-out: ka
T1 construct: expressed in transfected cells; host or cells: HEK293
T1 sequence (Q12884 1-760): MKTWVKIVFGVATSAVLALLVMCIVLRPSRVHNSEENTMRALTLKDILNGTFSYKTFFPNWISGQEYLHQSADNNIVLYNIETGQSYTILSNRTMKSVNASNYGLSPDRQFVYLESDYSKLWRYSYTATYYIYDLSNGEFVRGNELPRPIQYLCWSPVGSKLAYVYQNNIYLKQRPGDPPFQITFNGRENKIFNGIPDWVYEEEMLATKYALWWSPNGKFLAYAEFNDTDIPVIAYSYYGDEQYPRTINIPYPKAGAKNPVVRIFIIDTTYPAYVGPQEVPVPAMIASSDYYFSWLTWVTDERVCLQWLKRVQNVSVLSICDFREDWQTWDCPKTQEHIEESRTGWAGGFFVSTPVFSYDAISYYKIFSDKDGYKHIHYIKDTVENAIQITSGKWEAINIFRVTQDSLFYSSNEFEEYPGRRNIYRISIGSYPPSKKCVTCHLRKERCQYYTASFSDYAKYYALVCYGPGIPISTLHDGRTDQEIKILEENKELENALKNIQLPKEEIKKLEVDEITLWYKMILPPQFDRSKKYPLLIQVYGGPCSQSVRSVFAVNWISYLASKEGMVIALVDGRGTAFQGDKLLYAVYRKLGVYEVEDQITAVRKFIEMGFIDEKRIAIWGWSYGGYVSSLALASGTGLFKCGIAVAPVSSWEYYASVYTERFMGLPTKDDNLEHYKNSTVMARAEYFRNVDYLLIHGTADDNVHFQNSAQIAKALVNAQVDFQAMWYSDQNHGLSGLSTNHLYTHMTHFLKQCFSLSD
Description: HEK293 cells (human embryonic kidney cells) were engineered to express the human FAP. […] Cell concentrations were adjusted to 3 x 10^5 mL^-1, and 3.000 µL of the suspension was dispensed into a poly-lysine-coated, clear cell dish (10cm). Approximately 24 hours after re-seeding, the medium was replaced by assay medium (Ham's medium with 20 mM HEPES) containing 1 % FCS. The dish was placed in the LigandTracer® device and a baseline measurement was obtained using the LigandTracer® Control software (version 2.4). […] To determine the dissociation rate (kd) the cells were washed and subsequently incubated with fresh assay medium for several hours. […] Table 14 Results of the LigandTracer® assay

Human recombinant FAP [1] = molecular target: T2, Human recombinant FAP (Homo sapiens, UniProt Q12884); assay: FRET-based FAP protease activity assay (human); type: biochemical; design: purchased R&D systems 3715-SE; conditions: FRET-peptide substrate, 37°C; for IC50: read-out: pIC50 (Activity) (converted)
T2 sequence (Q12884 1-760): T1 sequence (Q12884 1-760)
Description: (§1) In order to determine the inhibitory activity a FRET-based FAP protease activity assay was established.
25 µL of a 30 µM substrate solution, diluted in assay buffer, was added. […] Four parameter logistic (4PL) curve fitting and pIC50 calculations were performed using ActivityBase software (IDBS).

Recombinant human DPP4 = molecular target: T3, Recombinant human DPP4 (Homo sapiens, UniProt P27487); assay: DPP4 protease activity assay; type: biochemical; conditions: 20 µM GP-AMC substrate
T3 construct: purchased R&D systems 9168-SE
Description: (§2) The PREP activity assay was performed using the FACS buffer (PBS including 1% FBS, Sigma-Aldrich, Cat# D8537). […] The DPP4 activity assay was performed in DPP assay buffer (25 mM Tris, pH 8.0).
(§3) Four parameter logistic (4PL) curve fitting and pIC50 calculations were performed using ActivityBase software.

Human recombinant FAP [2] = molecular target: T2, Human recombinant FAP; assay: Surface plasmon resonance assay (Biacore T200, single cycle kinetics); type: binding; conditions: SPR, 25°C
Description: Surface plasmon resonance studies were performed using a Biacore™ T200 SPR system (Cytiva, formerly GE Healthcare). Briefly, polarized light is directed towards a gold-labeled sensor surface, and minimum intensity reflected light is detected. The angle of reflected light changes as molecules bind and dissociate. […] Test compounds are contacted with the loaded surface, and a real-time interaction profile with the FAP ligand is recorded in a sensorgram. In real-time, the association and dissociation of a binding interaction is measured, enabling calculation of association and dissociation rate constants and the corresponding affinity constants. Importantly, a background response is generated due to the difference in the refractive indices of the running and sample buffers, as well as unspecific binding of the test compounds to the flow cell surface. This background is measured and subtracted by running the sample on a control flow cell coated with the same density of capture antibody in the absence of immobilized FAP. Furthermore, baseline drift correction of the binding data is performed, which is caused by slow dissociation of the captured FAP from the immobilized antibody. This drift is measured by injecting running buffer through a flow cell with the antibody and FAP immobilized to the sensor surface.
Biacore™ CM5 sensor chips were used. […] A 150 µL aliquot was transferred into plastic vials and placed into the sample rack of the Biacore™ T200 instrument. Amine Coupling Kit Reagent solutions were transferred into plastic vials and placed into the sample rack: 90 µL of 0.4 M 1-ethyl-3-(3-dimethylaminopropyl)carbodiimide (EDC), and 90 µL of 0.1 M N-hydroxysuccinimide (NHS). A 130 µL aliquot of 1 M ethanolamine-HCl, pH 8.5, was transferred into plastic vials and placed into the sample rack. The Biacore™ liquid system was set-up as follows: Separate bottles containing distilled water (1 L), Running Buffer (500 mL), as well as an empty bottle for waste were placed onto the buffer tray. A preinstalled program for immobilization was used, with an immobilization level of 7000 RU. Immobilization was performed at 25°C. The immobilization procedure of anti-FAP antibodies was performed, as described in the Table 5. Table 5: Immobilization protocol for anti-FAP antibodies used on the CM5 sensor chip.
Human recombinant FAP was diluted in Running Buffer to a final concentration of 20 µg/mL. A 100 µL aliquot of human FAP-Working-Solution was transferred into plastic vials and placed into a sample rack. A 0.5 mM Compound-Stock-Solution was prepared by dissolving each compound in DMSO. For each test compound, Compound-Stock-Solutions were diluted in Running Buffer (HBST) at 500 nM and further diluted with HBST-DMSO Buffer (0.1% DMSO). SPR binding analyses for binary complexes were performed in SCK mode at 25°C. Following three SCK measurements, a baseline drift was assessed by injecting running buffer through a flow cell, with the antibody and FAP immobilized to the sensor surface. Table 6: Protocol for assessing the binding kinetics.
For each test compound, SPR raw data in the form of resonance units (RU) were plotted as sensorgrams using the Biacore™ T200 control software. The signal from the blank sensorgram was subtracted from that of the test compound sensorgram (blank corrected). The blank corrected sensorgram was corrected for baseline drift by subtracting the sensorgram of a SCK run without the test compound (running buffer only). The association rate (kon), dissociation rate (koff), dissociation constant (KD), and t1/2 were calculated from Blank-normalized SPR data using the 1:1 Langmuir binding model from the Biacore™ T200 evaluation software. Raw data and fit results were imported as text files in IDBS. The pKD value (negative decadic logarithm of dissociation constant) was calculated in the IDBS excel template.

[3] = molecular target: T4, FAP-expressing human WI-38 fibroblasts (Homo sapiens, UniProt Q12884); assay: Competitive FACS binding assay (displacement of Cy5-labeled FAP inhibitor 3BP-2935); conditions: 3 nM Cy5-labeled 3BP-2935, 4°C, 1 hour
T4 construct: FAP-expressing human WI-38 fibroblasts (ECACC 90020107) were cultured in EMEM; host or cells: WI-38 human fibroblasts
T4 sequence (Q12884 1-760): T1 sequence (Q12884 1-760)
Description: In order to determine binding of compounds according to the present invention to FAP-expressing cells, a competitive FACS binding assay was established.
Cells were diluted in FACS buffer to a final concentration of 100.000 cells per ml and 200 µl of the cell suspension are transferred to a u-shaped non-binding 96-well plate (Greiner).
Cell were washed twice with FACS buffer (see above) and resuspended in 200 µl FACS buffer. Cells were analyzed in an Attune NxT flow cytometer (Thermo Fisher Scientific). Median fluorescence intensities (Cy5 channel) was calculated by Attune NxT software and plotted against test compound concentrations. Four parameter logistic (4PL) curve fitting and pIC50 calculations were performed using ActivityBase software.

recombinant human PREP = molecular target: T5, recombinant human PREP (Homo sapiens, UniProt P48147); assay: PREP protease activity assay; type: biochemical; conditions: 50 µM Z-GP-AMC substrate
T5 construct: purchased R&D systems 4308-SE
T5 sequence (P48147 1-710): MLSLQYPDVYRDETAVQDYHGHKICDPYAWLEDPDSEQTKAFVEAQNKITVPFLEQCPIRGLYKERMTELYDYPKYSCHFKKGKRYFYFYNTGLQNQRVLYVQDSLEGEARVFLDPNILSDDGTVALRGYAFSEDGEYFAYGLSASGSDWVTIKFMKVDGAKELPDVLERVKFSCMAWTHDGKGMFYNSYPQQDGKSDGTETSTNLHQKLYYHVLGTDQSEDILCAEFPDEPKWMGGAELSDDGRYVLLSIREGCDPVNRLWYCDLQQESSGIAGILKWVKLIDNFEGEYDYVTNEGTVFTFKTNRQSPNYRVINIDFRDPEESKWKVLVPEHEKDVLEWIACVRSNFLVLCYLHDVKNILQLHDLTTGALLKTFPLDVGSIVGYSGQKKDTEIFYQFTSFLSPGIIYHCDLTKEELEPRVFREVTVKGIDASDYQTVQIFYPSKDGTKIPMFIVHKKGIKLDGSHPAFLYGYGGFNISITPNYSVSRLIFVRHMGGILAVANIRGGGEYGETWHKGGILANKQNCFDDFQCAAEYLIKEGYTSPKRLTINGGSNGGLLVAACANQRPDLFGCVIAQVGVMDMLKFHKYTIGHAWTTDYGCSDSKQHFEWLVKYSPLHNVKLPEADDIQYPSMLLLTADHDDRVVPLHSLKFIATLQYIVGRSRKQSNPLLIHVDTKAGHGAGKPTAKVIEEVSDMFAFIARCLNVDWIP
Description: as §2, §3

Recombinant mouse FAP = molecular target: T6, Recombinant mouse FAP (Mus musculus, UniProt P97321); assay: FRET-based FAP protease activity assay (mouse); type: biochemical; conditions: FRET-peptide substrate, 37°C
T6 construct: purchased R&D systems 8647-SE
T6 sequence (P97321 1-761): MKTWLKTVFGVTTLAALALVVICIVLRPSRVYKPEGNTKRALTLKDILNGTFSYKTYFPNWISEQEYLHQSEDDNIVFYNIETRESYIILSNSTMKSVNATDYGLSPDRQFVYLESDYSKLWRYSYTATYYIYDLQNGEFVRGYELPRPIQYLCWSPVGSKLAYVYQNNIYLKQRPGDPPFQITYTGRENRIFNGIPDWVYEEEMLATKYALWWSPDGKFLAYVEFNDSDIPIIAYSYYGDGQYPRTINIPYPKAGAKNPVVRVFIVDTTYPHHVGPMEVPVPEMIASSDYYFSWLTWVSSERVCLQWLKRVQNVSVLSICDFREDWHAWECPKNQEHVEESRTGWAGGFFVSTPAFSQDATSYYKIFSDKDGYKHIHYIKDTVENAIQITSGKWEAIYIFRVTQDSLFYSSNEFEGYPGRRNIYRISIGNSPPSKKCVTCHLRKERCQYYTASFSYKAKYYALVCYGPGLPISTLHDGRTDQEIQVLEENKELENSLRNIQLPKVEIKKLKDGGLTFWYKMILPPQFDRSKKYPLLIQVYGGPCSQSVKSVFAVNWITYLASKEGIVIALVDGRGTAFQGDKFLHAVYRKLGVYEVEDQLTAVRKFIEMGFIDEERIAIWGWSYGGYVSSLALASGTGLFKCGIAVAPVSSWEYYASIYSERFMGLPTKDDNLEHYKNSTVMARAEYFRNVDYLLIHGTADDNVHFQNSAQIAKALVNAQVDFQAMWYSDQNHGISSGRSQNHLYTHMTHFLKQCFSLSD
Description: as §1
25 µL of a 30 µM substrate solution, diluted in assay buffer, was added. […] Four parameter logistic (4PL) curve fitting and pIC50 calculations were performed using ActivityBase software.

T3 sequence (P27487 whole entry): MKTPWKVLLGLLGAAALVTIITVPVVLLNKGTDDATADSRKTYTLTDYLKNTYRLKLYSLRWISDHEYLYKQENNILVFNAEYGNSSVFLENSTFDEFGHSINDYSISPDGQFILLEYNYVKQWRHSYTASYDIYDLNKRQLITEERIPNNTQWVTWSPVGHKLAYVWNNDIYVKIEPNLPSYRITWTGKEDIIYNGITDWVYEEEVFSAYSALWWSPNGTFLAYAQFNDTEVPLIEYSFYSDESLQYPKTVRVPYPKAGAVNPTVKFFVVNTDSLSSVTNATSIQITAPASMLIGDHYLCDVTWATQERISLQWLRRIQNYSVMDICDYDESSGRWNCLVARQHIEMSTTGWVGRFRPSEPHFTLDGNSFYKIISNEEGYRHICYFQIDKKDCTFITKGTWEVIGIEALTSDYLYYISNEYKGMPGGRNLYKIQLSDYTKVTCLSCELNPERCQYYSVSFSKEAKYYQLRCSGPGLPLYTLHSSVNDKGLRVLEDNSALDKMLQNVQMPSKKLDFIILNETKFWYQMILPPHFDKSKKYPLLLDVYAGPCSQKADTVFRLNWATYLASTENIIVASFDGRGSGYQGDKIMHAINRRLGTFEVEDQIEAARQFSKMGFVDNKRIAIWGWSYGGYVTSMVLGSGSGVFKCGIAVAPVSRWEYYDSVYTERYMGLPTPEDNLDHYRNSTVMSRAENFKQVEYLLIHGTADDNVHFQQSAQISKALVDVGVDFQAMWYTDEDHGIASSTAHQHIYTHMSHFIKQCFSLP

SMILES: O=C(O)CN1CCN(CC(=O)O)CCN(CC(=O)N2CCN(CCNC(=O)c3ccc(-c4ccc5c(C(=O)NCC(=O)N6CCC[C@H]6C(=O)c6nc7ccccc7o6)ccnc5c4)cc3)CC2)CCN(CC(=O)O)CC1 [Compound 3BP-4665]
HL (HEK-FAP cells): 22 ± 16 min
pKD (HEK-FAP cells): 8.8 ± 0.2
kon (HEK-FAP cells): 220000 M⁻¹ s⁻¹

SMILES: CS(=O)(=O)c1ccc(-c2ccc3c(C(=O)NCC(=O)N4CC(F)(F)C[C@H]4C#N)ccnc3c2)cc1
pIC50 (Activity) (Human recombinant FAP [1]): 9.1
pIC50 (DPP4) (Recombinant human DPP4): <6
pKD (Biacore) (Human recombinant FAP [2]; 1:1 Langmuir binding model): 10
HL [min] (Biacore) (Human recombinant FAP [2]; half-life): 37 min
pIC50 (FACS) [3]: 8.5
pIC50 (PREP) (recombinant human PREP): <6

SMILES: N#C[C@@H]1CCCN1C(=O)CNC(=O)c1cc[n+]([O-])c2ccccc12
pIC50 (Activity) (Human recombinant FAP [1]): 7.6
pIC50 (DPP4) (Recombinant human DPP4): <6
pIC50 (FACS) [3]: 7.1
pIC50 (PREP) (recombinant human PREP): 6.3
pIC50 (mouseFAP) (Recombinant mouse FAP): 7.5

Further lines, results first:

HL (HEK-FAP cells): 276 ± 142 min
SMILES: N#C[C@@H]1CC(F)(F)CN1C(=O)CNC(=O)c1ccnc2ccc(OCCCN3CCN(C(=O)CN4CCN(CC(=O)O)CCN(CC(=O)O)CCN(CC(=O)O)CC4)CC3)cc12 [Compound 3BP-2929, reference compound]

HL (HEK-FAP cells): 1030 ± 1439 min
pKD (HEK-FAP cells): 9.3 ± 0.7
kon (HEK-FAP cells): 160000 M⁻¹ s⁻¹
SMILES: O=C(O)CN1CCN(CC(=O)O)CCN(CC(=O)N2CCN(CCNC(=O)c3cccc(-c4ccc5nccc(C(=O)NCC(=O)N6CCC[C@H]6C(=O)c6nc7ccccc7o6)c5c4)c3)CC2)CCN(CC(=O)O)CC1 [Compound 3BP-4664]

IC50 (Human recombinant FAP [1]): 79.4 nM
IC50 [3]: 251 nM
IC50 (recombinant human PREP): 1.26 nM
IC50 (Recombinant mouse FAP; read-out: pIC50 (mouseFAP) (converted)): 126 nM
SMILES: Cc1nc(C(=O)[C@@H]2CCCN2C(=O)CNC(=O)c2ccnc3ccccc23)no1

IC50 (Human recombinant FAP [1]): 1.58 nM
IC50 (Recombinant human DPP4; read-out: pIC50 (DPP4) (converted)): > 1000 nM
IC50 [3]: 3.16 nM
IC50 (recombinant human PREP): > 1000 nM
SMILES: N#C[C@@H]1CCCN1C(=O)CNC(=O)c1ccnc2ccc(-c3cccc(C(=O)O)c3)cc12
